Laboratory results taken from patent US12358893B2, “Metalloenzyme inhibitor compounds” (Corxel Pharmaceuticals Hong Kong Limited, priority 2019, dated 2025).

How the values were obtained:
[1] = target: T1, recombinant human CYP11B1 (Homo sapiens, UniProt P15538); test: CYP11B1 enzyme assay with enzyme enriched microsomes, cortisol measured by LC-MS; assay type: biochemical; details: microsomes from V79-4 cells; 11-deoxycortisol at Km; read-out: hCYP11B1 IC50
T1 construct: made in house; host or cells: V79-4 cells (Chinese hamster lung fibroblasts); enzyme-enriched microsomal fraction of the lysate
T1 sequence (P15538 25-503): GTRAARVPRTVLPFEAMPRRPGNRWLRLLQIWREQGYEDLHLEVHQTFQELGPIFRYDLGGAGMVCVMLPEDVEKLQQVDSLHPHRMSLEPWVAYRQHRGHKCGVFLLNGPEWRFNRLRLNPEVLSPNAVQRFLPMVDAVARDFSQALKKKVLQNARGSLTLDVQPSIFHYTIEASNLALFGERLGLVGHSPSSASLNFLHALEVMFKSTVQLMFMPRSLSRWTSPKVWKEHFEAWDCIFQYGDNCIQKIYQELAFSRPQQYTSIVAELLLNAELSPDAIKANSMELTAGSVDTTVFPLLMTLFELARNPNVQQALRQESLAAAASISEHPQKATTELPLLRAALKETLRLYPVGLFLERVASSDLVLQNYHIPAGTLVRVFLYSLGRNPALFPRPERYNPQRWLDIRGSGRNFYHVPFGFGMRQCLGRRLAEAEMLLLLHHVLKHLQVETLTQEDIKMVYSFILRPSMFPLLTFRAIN
Procedure: (§1) V79-4 cells expressing recombinant andrenodoxin and andrenodoxin reductase with either recombinant human CYP11B2 or CYP11B1 were prepared according to methods previously described (LaSala et al 2009 Anal Bioch 394:56-61). An enzyme enriched microsomal fraction was prepared from cellular lysates and subsequently used as the enzyme source for determining inhibitor IC50s. The substrate Km values were experimentally determined for 11-deoxycorticosterone (CYP11B2 substrate) and 11-deoxycortisol (CYP11B1 substrate). Enzyme assays for inhibitor screening employed CYP11B2 and CYP11B1 enzyme enriched microsomes and were run at the Km of the respective substrates. Products of the enzyme reactions, aldosterone for CYP11B2 or cortisol for CYP11B1, were measured by LC-MS. Assays were run under conditions of less than 20% substrate turnover. Inhibitor IC50s were generated by determining the product formation in the absence or presence of inhibitor at various concentrations. In the absence of the test compound, the product formed (Pt) in each data set was defined as 100% activity. In the absence of enzyme, the product formed (Pb) in each data set was defined as 0% activity. The percent activity in the presence of each inhibitor was calculated according to the following equation: % activity=(P−Pb)/(Pt−Pb), where P=the product formed in the presence of the inhibitor. The IC50 value was defined as the inhibitor concentration causing a 50% decrease in activity relative to the no inhibitor control reaction.

[2] = target: T2, recombinant human CYP11B2 (Homo sapiens, UniProt P19099); test: CYP11B2 enzyme assay with enzyme enriched microsomes, aldosterone measured by LC-MS; assay type: biochemical; details: microsomes from V79-4 cells; 11-deoxycorticosterone at Km; read-out: hCYP11B2 IC50
T2 construct: made in house; host or cells: V79-4 cells (Chinese hamster lung fibroblasts); enzyme-enriched microsomal fraction of the lysate
T2 sequence (P19099 25-503): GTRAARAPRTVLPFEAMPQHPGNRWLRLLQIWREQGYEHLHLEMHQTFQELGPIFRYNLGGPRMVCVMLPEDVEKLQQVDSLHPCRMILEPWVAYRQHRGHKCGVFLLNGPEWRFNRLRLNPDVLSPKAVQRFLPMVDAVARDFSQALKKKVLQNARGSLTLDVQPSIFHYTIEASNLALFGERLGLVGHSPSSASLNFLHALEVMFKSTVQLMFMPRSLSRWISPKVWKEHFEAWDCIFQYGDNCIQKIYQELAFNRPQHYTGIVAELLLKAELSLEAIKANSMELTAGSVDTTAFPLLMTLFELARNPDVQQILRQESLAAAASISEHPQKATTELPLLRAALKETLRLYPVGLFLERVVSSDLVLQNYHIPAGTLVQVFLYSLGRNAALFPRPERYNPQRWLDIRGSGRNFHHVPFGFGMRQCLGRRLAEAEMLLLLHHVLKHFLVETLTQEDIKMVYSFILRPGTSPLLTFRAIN
Procedure: as §1

Row | SMILES | IC50 [1] | IC50 [2]
1 | Fc1ccc2nc(-n3cnc4ccccc43)n(C3CC3)c2c1 [Example 1, 1′-cyclopropyl-6′-fluoro-1′H-1,2′-bibenzo[d]imidazole] | 100 to 1000 nM | 1 to 100 nM
2 | Fc1ccc2nc(-n3cnc4ccccc43)n(C3CC3)c2c1F [Example 2, 1′-cyclopropyl-6′,7′-difluoro-1′H-1,2′-bibenzo[d]imidazole] | 1000 to 10000 nM | 1 to 100 nM
3 | Fc1cc2nc(-n3cnc4cnc(C(F)F)cc43)n(C3CC3)c2cc1F [Example 40, 1-(1-cyclopropyl-5,6-difluoro-1H-benzo[d]imidazol-2-yl)-6-(difluoromethyl)-1H-imidazo[4,5-c]pyridine] | > 10000 nM | 1 to 100 nM
4 | O=C(O)c1cc2c(cn1)ncn2-c1nc2cc(F)c(F)cc2n1C1CC1 [Example 39, 1-(1-cyclopropyl-5,6-difluoro-1H-benzo[d]imidazol-2-yl)-1H-imidazo[4,5-c]pyridine-6-carboxylic acid] | > 10000 nM | 1000 to 10000 nM
5 | N#Cc1ccc2nc(-n3cnc4cc(OC(F)F)ccc43)n(C3CC3)c2c1 [Example 49, 1′-cyclopropyl-5-(difluoromethoxy)-1′H-[1,2′-bibenzo[d]imidazole]-6′-carbonitrile] | 100 to 1000 nM | 1 to 100 nM
6 | COc1cc2ncn(-c3nc4ccc(F)cc4n3C3CC3)c2cc1OC [Example 5, 1′-cyclopropyl-6′-fluoro-5,6-dimethoxy-1′H-1,2′-bibenzo[d]imidazole] | 1000 to 10000 nM | 1 to 100 nM
7 | CS(=O)(=O)N(c1ccc2c(c1)ncn2-c1nc2ccc(F)c(F)c2n1C1CC1)S(C)(=O)=O [Example 30, N-(1′-cyclopropyl-6′,7′-difluoro-1′H-[1,2′-bibenzo[d]imidazol]-5-yl)-N-(methylsulfonyl) methanesulfonamide] | > 10000 nM | 1000 to 10000 nM
8 | Cc1cccc2c1ncn2-c1nc2ccc(F)cc2n1C1CC1 [Example 14, 1′-cyclopropyl-6′-fluoro-4-methyl-1′H-1,2′-bibenzo[d]imidazole] | > 10000 nM | 1000 to 10000 nM
9 | N#Cc1ccc2nc(-n3cnc4ccncc43)n(C3CC3)c2c1 [Example 42, 1-cyclopropyl-2-(3H-imidazo[4,5-c]pyridin-3-yl)-1H-benzo[d]imidazole-6-carbonitrile] | > 10000 nM | 1 to 100 nM
10 | Fc1cc2nc(-n3cnc4ncccc43)n(C3CC3)c2cc1F [Example 34, 1-(1-cyclopropyl-5,6-difluoro-1H-benzo[d]imidazol-2-yl)-1H-imidazo[4,5-b]pyridine] | > 10000 nM | 1000 to 10000 nM
11 | Fc1ccc2nc(-n3cnc4cc(OC(F)(F)F)ccc43)n(C3CC3)c2c1 [Example 27, 1′-cyclopropyl-6′-fluoro-5-(trifluoromethoxy)-1′H-1,2′-bibenzo[d]imidazole] | 100 to 1000 nM | 1 to 100 nM
12 | Cc1ccc2ncn(-c3nc4ccc(F)cc4n3C3CC3)c2c1 [Example 9, 1′-cyclopropyl-6′-fluoro-6-methyl-1′H-1,2′-bibenzo[d]imidazole] | 100 to 1000 nM | 1 to 100 nM
13 | N#Cc1ccc2ncn(-c3nc4ccc(F)cc4n3C3CC3)c2c1 [Example 7, 1′-cyclopropyl-6′-fluoro-1′H-[1,2′-bibenzo[d]imidazole]-6-carbonitrile] | > 10000 nM | 100 to 1000 nM
14 | N#Cc1ccc2c(c1)ncn2-c1nc2ccc(F)cc2n1C1CC1 [Example 6, 1′-cyclopropyl-6′-fluoro-1′H-[1,2′-bibenzo[d]imidazole]-5-carbonitrile] | 1000 to 10000 nM | 1 to 100 nM
15 | CS(=O)(=O)Nc1ccc2ncn(-c3nc4ccc(F)c(F)c4n3C3CC3)c2c1 [Example 33, N-(1′-cyclopropyl-6′,7′-difluoro-1′H-[1,2′-bibenzo[d]imidazol]-6-yl) methanesulfonamide] | > 10000 nM | 1000 to 10000 nM
16 | N#Cc1ccc2nc(-n3cnc4cnccc43)n(C3CC3)c2c1 [Example 43, 1-cyclopropyl-2-(1H-imidazo[4,5-c]pyridin-1-yl)-1H-benzo[d]imidazole-6-carbonitrile] | > 10000 nM | 1 to 100 nM
17 | Fc1ccc2nc(-n3cnc4cc(C(F)(F)F)ccc43)n(C3CC3)c2c1 [Example 20, 1′-cyclopropyl-6′-fluoro-5-(trifluoromethyl)-1′H-1,2′-bibenzo[d]imidazole] | 100 to 1000 nM | 1 to 100 nM
18 | CCn1c(-n2cnc3cc(F)c(F)cc32)nc2ccc(C#N)cc21 [Example 22, 1′-ethyl-5,6-difluoro-1′H-[1,2′-bibenzo[d]imidazole]-6′-carbonitrile] | 1000 to 10000 nM | 1 to 100 nM
19 | N#Cc1ccc2nc(-n3cnc4ccc(OC(F)F)cc43)n(C3CC3)c2c1 [Example 50, 1′-cyclopropyl-6-(difluoromethoxy)-1′H-[1,2′-bibenzo[d]imidazole]-6′-carbonitrile] | 1000 to 10000 nM | 1 to 100 nM

Results, then the molecule that gave them:

Row | IC50 [1] | IC50 [2] | SMILES
20 | 1000 to 10000 nM | 1 to 100 nM | Fc1cc2ncn(-c3nc4ccc(F)c(F)c4n3C3CC3)c2cc1F [Example 15, 1′-cyclopropyl-5,6,6′,7′-tetrafluoro-1′H-1,2′-bibenzo[d]imidazole]
21 | 1000 to 10000 nM | 1 to 100 nM | Fc1cc2nc(-n3cnc4ccncc43)n(C3CC3)c2cc1F [Example 36, 3-(1-cyclopropyl-5,6-difluoro-1H-benzo[d]imidazol-2-yl)-3H-imidazo[4,5-c] pyridine]
22 | > 10000 nM | 100 to 1000 nM | N#Cc1ccc2ncn(-c3nc4cc(F)c(F)cc4n3C3CC3)c2c1 [Example 24, 1′-cyclopropyl-5′,6′-difluoro-1′H-[1,2′-bibenzo[d]imidazole]-6-carbonitrile]
23 | > 10000 nM | 1000 to 10000 nM | O=C(O)c1ccc2c(c1)ncn2-c1nc2cc(F)c(F)cc2n1C1CC1 [Example 44, 1′-cyclopropyl-5′,6′-difluoro-1′H-[1,2′-bibenzo[d]imidazole]-5-carboxylic acid]
24 | > 10000 nM | 1000 to 10000 nM | CS(=O)(=O)Nc1ccc2ncn(-c3nc4cc(F)c(F)cc4n3C3CC3)c2c1 [Example 45, N-(1′-cyclopropyl-5′,6′-difluoro-1′H-[1,2′-bibenzo[d]imidazol]-6-yl) methanesulfonamide]
25 | 1000 to 10000 nM | 1 to 100 nM | N#Cc1ccc2nc(-n3cnc4cc(F)c(F)cc43)n(C3CC3)c2c1 [Example 25, 1′-cyclopropyl-5,6-difluoro-1′H-[1,2′-bibenzo[d]imidazole]-6′-carbonitrile]
26 | 1000 to 10000 nM | 1 to 100 nM | Fc1cc2nc(-n3cnc4cc(C(F)F)ncc43)n(C3CC3)c2cc1F [Example 41, 3-(1-cyclopropyl-5,6-difluoro-1H-benzo[d]imidazol-2-yl)-6-(difluoromethyl)-3H-imidazo[4,5-c]pyridine]
27 | 100 to 1000 nM | 1 to 100 nM | Fc1cc2nc(-n3cnc4ccccc43)n(C3CC3)c2cc1F [Example 16, 1′-cyclopropyl-5′,6′-difluoro-1′H-1,2′-bibenzo[d]imidazole]
28 | 1000 to 10000 nM | 1 to 100 nM | N#Cc1ccc2nc(-n3cnc4cc(F)c(F)cc43)n(C3CC3)c2n1 [Example 32, 3-cyclopropyl-2-(5,6-difluoro-1H-benzo[d]imidazol-1-yl)-3H-imidaz[4,5-b]pyridine-5-carbonitrile]
29 | 1000 to 10000 nM | 1 to 100 nM | Fc1ccc2nc(-n3cnc4cc(F)c(F)cc43)n(C3CC3)c2c1 [Example 4, 1′-cyclopropyl-5,6,6′-trifluoro-1′H-1,2′-bibenzo[d]imidazole]
30 | 1000 to 10000 nM | 1 to 100 nM | Fc1cc2ncn(-c3nc4cc(F)c(F)cc4n3C3CC3)c2cc1F [Example 17, 1′-cyclopropyl-5,5′,6,6′-tetrafluoro-1′H-1,2′-bibenzo[d]imidazole]
